What is called pIC50 is the negative decadic logarithm of the IC50, by convention in mol/L. A high value points to a small IC50.

Here are results for six compounds from US20180148418A1, “AMIDO-SUBSTITUTED CYCLOHEXANE DERIVATIVES” (Bayer Pharma Aktiengesellschaft, priority 2015, published 2018).

Test [1] has as its target T1, TNKS2 (Homo sapiens, UniProt Q9H2K2).
T1 construct: purchased BPS Bioscience, San Diego, USA 80572 (TNKS2 Histone Ribosylation Assay Kit)
T1 sequence (Q9H2K2 1-1166): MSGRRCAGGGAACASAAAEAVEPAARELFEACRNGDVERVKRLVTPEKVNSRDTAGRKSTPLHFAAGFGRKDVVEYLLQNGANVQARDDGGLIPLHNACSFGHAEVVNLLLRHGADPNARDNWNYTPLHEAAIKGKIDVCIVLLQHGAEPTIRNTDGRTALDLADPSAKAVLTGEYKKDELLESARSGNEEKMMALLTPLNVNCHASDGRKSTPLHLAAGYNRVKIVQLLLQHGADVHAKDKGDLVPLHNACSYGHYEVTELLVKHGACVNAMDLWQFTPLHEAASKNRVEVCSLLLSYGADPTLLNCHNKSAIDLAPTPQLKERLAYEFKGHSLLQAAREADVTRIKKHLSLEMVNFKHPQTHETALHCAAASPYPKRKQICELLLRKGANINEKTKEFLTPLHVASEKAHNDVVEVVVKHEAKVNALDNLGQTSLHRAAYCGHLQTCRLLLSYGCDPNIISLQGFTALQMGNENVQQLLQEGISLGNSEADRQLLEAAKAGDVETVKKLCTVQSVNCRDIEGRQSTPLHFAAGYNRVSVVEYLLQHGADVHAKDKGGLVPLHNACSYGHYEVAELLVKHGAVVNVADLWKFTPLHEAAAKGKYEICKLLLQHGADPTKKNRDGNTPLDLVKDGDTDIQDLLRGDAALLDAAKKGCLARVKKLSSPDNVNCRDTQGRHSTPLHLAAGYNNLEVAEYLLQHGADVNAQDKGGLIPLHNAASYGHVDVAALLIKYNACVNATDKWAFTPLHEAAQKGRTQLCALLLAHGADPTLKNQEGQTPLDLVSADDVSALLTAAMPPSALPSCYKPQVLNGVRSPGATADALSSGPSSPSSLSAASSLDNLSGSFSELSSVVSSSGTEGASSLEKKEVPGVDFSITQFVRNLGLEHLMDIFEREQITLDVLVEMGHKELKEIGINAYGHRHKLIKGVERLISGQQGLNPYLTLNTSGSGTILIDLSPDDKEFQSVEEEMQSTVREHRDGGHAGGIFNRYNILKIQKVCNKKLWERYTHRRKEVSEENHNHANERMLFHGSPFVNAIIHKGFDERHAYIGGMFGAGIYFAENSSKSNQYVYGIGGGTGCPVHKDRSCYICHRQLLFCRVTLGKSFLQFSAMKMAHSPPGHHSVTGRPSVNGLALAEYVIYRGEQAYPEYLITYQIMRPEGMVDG
Kind of test: TNKS2 Assay B (auto-parsylation, [3H]-NAD+ SPA). In kind it is biochemical. The conditions noted are these: 6 nM TNKS2, auto-parsylation, over night at room temperature.

The test system of test [2] is wildtype Wnt signaling cascade. Kind of test: HEK293 TOP assay (Super TopFlash luciferase reporter, Wnt-3a stimulated). Format: cell-based. The conditions noted are these: Homo sapiens, HEK293, 16 h, HEK293 TOP reporter cells, Wnt3a at EC50, 16 hours. In outline:
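Compound series (50 μM down to 15 nM, 3.16-fold) diluted from DMSO 50-fold into CAFTY buffer, pH 7.4, 2 mM Ca^2+, 0.01% BSA, applied to Wnt-3a-stimulated HEK293 TopFlash and FOP reporter lines in parallel. Cells seeded 10000/well 24 h before; luciferase signal measured.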
Background: In a reporter assay the amount or activity of a reporter protein is the signal.

Test [3] has as its system HEK293 cells cotransfected with the FOP control vector. Kind of test: HEK293 FOP assay (control reporter with non-functional TCF elements). Format: cell-based. The conditions noted are these: Homo sapiens, 16 hours. The essentials: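 Compound series from 50 μM down to 15 nM, prediluted in DMSO then 50-fold into CAFTY buffer (pH 7.4, 2 mM Ca2+, 0.01% BSA), tested alongside TOP cells on a Geneticin-selected HEK293 FOP line whose TCF elements are replaced by a random sequence; recombinant human Wnt-3a applied at 2500-5 ng/ml.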

Molecules are shown by their SMILES. pIC50: −log10 of the molar value. A value given as a limit tells only on which side of the number the result lay.

As to `CC1CCN(CCNC(=O)c2nc[nH]c2C(=O)N[C@H]2CC[C@@]3(CCN(c4ccc(F)cc4Cl)C3=O)CC2)CC1` [Example 160, N^5-[(trans)-2-(2-chloro-4-fluorophenyl)-1-oxo-2-azaspiro[4.5]dec-8-yl]-N^4-[2-(4-methylpiperidin-1-yl)ethyl]-1H-imidazole-4,5-dicarboxamide], the negative-log IC50 (pIC50) in test [1] is 8.47; in test [2] it was 7.89; in test [3], at most 4.30.
For the compound `O=C(NCCN1CCCCC1)c1nc[nH]c1C(=O)N[C@H]1CC[C@@]2(CCN(c3ccc(F)cc3Cl)C2=O)CC1` [Example 161, N^5-[(trans)-2-(2-chloro-4-fluorophenyl)-1-oxo-2-azaspiro[4.5]dec-8-yl]-N^4-[2-(piperidin-1-yl)ethyl]-1H-imidazole-4,5-dicarboxamide], the figures for the negative-log IC50 (pIC50) in test [1], in test [2] and in test [3] were 8.80, 7.26 and at most 4.30, respectively.
`CC(C)NC(=O)c1nc[nH]c1C(=O)N[C@H]1CC[C@@]2(CCN(c3ccc(F)cc3Cl)C2=O)CC1` [Example 162, N^5-[(trans)-2-(2-chloro-4-fluorophenyl)-1-oxo-2-azaspiro[4.5]dec-8-yl]-N^4-isopropyl-1H-imidazole-4,5-dicarboxamide]: the pIC50 in test [1] was 8.09; in test [2], 8.03; in test [3], 4.40.
The matching figures for `COCCNC(=O)c1nc[nH]c1C(=O)N[C@H]1CC[C@@]2(CCN(c3ccc(F)cc3Cl)C2=O)CC1` [Example 163, N^5-[(trans)-2-(2-chloro-4-fluorophenyl)-1-oxo-2-azaspiro[4.5]dec-8-yl]-N^4-(2-methoxyethyl)-1H-imidazole-4,5-dicarboxamide]: 8.23, 8.62 and at most 4.30.
The like results for `O=C(NC1CC1)c1nc[nH]c1C(=O)N[C@H]1CC[C@@]2(CCN(c3ccc(F)cc3Cl)C2=O)CC1` [Example 165, N^5-[(trans)-2-(2-chloro-4-fluorophenyl)-1-oxo-2-azaspiro[4.5]dec-8-yl]-N^4-cyclopropyl-1H-imidazole-4,5-dicarboxamide] were, in that order, 8.20, 8.42 and 4.46.
For the compound `O=C(N[C@H]1CC[C@@]2(CCN(c3ccc(F)cc3Cl)C2=O)CC1)c1[nH]cnc1C(=O)N1CC(F)C1` [Example 166, N-[(trans)-2-(2-chloro-4-fluorophenyl)-1-oxo-2-azaspiro[4.5]dec-8-yl]-4-[(3-fluoroazetidin-1-yl)carbonyl]-1H-imidazole-5-carboxamide], the figures for the pIC50 in test [1], in test [2] and in test [3] were 8.59, 9.16 and at most 4.30, respectively.
